According to PubChem BioAssay (NCI):
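A five-concentration, 48-hour dose response in 96-well plates underlies each endpoint, interpolated linearly between surrounding concentrations. GI50: concentration for 50% inhibition of growth. Definition used: TGI = concentration required for complete inhibition of growth.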

How the values were obtained:
Experiment in all cases: NCI anticancer screen, dose series, 48 h
HL-60(TB) leukemia = test system: HL-60(TB) leukemia
SF-268 CNS = test system: SF-268 CNS
K-562 leukemia = test system: K-562 leukemia
NCI-H522 lung = test system: NCI-H522 lung
CAKI-1 renal = test system: CAKI-1 renal
OVCAR-4 ovarian = test system: OVCAR-4 ovarian
SR leukemia = test system: SR leukemia
MALME-3M melanoma = test system: MALME-3M melanoma
NCI-H226 lung = test system: NCI-H226 lung
HOP-62 NSCLC = test system: HOP-62 NSCLC

Cn1ccnc1C(=O)/C=C/c1ccc(C(=O)Nc2ccc(Cl)cc2)cc1
GI50 (HL-60(TB) leukemia): 0.669 µM
TGI (HL-60(TB) leukemia): 1.97 µM
GI50 (SF-268 CNS): 1.37 µM
TGI (SF-268 CNS): > 33.3 µM
GI50 (K-562 leukemia): 0.646 µM
TGI (K-562 leukemia): > 33.3 µM
GI50 (NCI-H522 lung): 1.81 µM
TGI (NCI-H522 lung): 14 µM
GI50 (CAKI-1 renal): 1.17 µM
TGI (CAKI-1 renal): > 33.3 µM
GI50 (OVCAR-4 ovarian): 0.981 µM
TGI (OVCAR-4 ovarian): > 33.3 µM
GI50 (SR leukemia): 0.255 µM
TGI (SR leukemia): 1.56 µM
GI50 (MALME-3M melanoma): 2.23 µM
TGI (MALME-3M melanoma): 12.2 µM
GI50 (NCI-H226 lung): 3.11 µM
TGI (NCI-H226 lung): 18 µM
GI50 (HOP-62 NSCLC): 1.04 µM
TGI (HOP-62 NSCLC): > 33.3 µM

COC(=O)Nc1nc2ccc(Oc3ccc(NC(=O)Nc4cccc(C(=O)O)c4)cc3)cc2[nH]1
GI50 (HL-60(TB) leukemia): 6.1 µM
TGI (HL-60(TB) leukemia): 17.4 µM
GI50 (SF-268 CNS): 11.3 µM
TGI (SF-268 CNS): > 25 µM
GI50 (K-562 leukemia): 6.51 µM
TGI (K-562 leukemia): > 25 µM
GI50 (NCI-H522 lung): 4 µM
TGI (NCI-H522 lung): > 19 µM
GI50 (CAKI-1 renal): > 23.8 µM
TGI (CAKI-1 renal): > 25 µM
GI50 (OVCAR-4 ovarian): 9.77 µM
TGI (OVCAR-4 ovarian): > 25 µM
GI50 (SR leukemia): 2.41 µM
TGI (SR leukemia): > 25 µM
GI50 (MALME-3M melanoma): 7.92 µM
TGI (MALME-3M melanoma): > 25 µM
GI50 (NCI-H226 lung): 5.2 µM
TGI (NCI-H226 lung): > 25 µM
GI50 (HOP-62 NSCLC): 7.09 µM
TGI (HOP-62 NSCLC): > 22 µM

COc1ccc2nc(-c3cc(-c4cc(OC)c(OC)c(OC)c4)n[nH]3)[nH]c2c1
GI50 (HL-60(TB) leukemia): 1.69 µM
TGI (HL-60(TB) leukemia): 4.81 µM
GI50 (SF-268 CNS): 2.74 µM
TGI (SF-268 CNS): 9.38 µM
GI50 (K-562 leukemia): 2.01 µM
TGI (K-562 leukemia): > 100 µM
GI50 (NCI-H522 lung): 1.21 µM
TGI (NCI-H522 lung): 3.98 µM
GI50 (CAKI-1 renal): 1.79 µM
TGI (CAKI-1 renal): 5.64 µM
GI50 (OVCAR-4 ovarian): 1.24 µM
TGI (OVCAR-4 ovarian): 4.81 µM
GI50 (SR leukemia): 1.74 µM
TGI (SR leukemia): 8.38 µM
GI50 (MALME-3M melanoma): 1.74 µM
TGI (MALME-3M melanoma): 6.4 µM
GI50 (NCI-H226 lung): 0.462 µM
TGI (NCI-H226 lung): 2.98 µM
GI50 (HOP-62 NSCLC): 2.02 µM
TGI (HOP-62 NSCLC): 5.77 µM

CC1=C[C@H]2c3c(c(O)c(O)c4oc5c(C)cccc5c(=O)c34)[C@H](c3cc(O)c(O)c4oc5c(C)cccc5c(=O)c34)[C@H]2C(C)(C)C1
GI50 (HL-60(TB) leukemia): 3 µM
TGI (HL-60(TB) leukemia): 9.23 µM
GI50 (SF-268 CNS): 1.74 µM
TGI (SF-268 CNS): 11.7 µM
GI50 (K-562 leukemia): 1.67 µM
TGI (K-562 leukemia): > 100 µM
GI50 (NCI-H522 lung): 1.97 µM
TGI (NCI-H522 lung): 4.29 µM
GI50 (CAKI-1 renal): 1.5 µM
TGI (CAKI-1 renal): 9.08 µM
GI50 (OVCAR-4 ovarian): 1.51 µM
TGI (OVCAR-4 ovarian): 14.7 µM
GI50 (SR leukemia): 0.72 µM
TGI (SR leukemia): > 100 µM
GI50 (MALME-3M melanoma): 2.43 µM
TGI (MALME-3M melanoma): 10.7 µM
GI50 (NCI-H226 lung): 2.21 µM
TGI (NCI-H226 lung): 5.99 µM
GI50 (HOP-62 NSCLC): 1.15 µM
TGI (HOP-62 NSCLC): 3.44 µM

Cn1nccc1Nc1nccc(-c2cc3c(s2)C(C)(C)N(CCN2CCOCC2)C3=O)n1
GI50 (HL-60(TB) leukemia): 0.499 µM
TGI (HL-60(TB) leukemia): 78 µM
GI50 (SF-268 CNS): 27.8 µM
TGI (SF-268 CNS): > 100 µM
GI50 (K-562 leukemia): 11.7 µM
TGI (K-562 leukemia): > 100 µM
GI50 (NCI-H522 lung): 14.9 µM
TGI (NCI-H522 lung): > 100 µM
GI50 (CAKI-1 renal): 6.66 µM
TGI (CAKI-1 renal): > 100 µM
GI50 (OVCAR-4 ovarian): 24 µM
TGI (OVCAR-4 ovarian): > 100 µM
GI50 (SR leukemia): 23 µM
TGI (SR leukemia): > 100 µM
GI50 (MALME-3M melanoma): 0.183 µM
TGI (MALME-3M melanoma): > 100 µM
GI50 (NCI-H226 lung): 20.2 µM
TGI (NCI-H226 lung): > 100 µM
GI50 (HOP-62 NSCLC): 7.53 µM
TGI (HOP-62 NSCLC): > 100 µM

CC1=CC(=NC(=O)CBr)C=C/C1=N\S(=O)(=O)c1ccccc1
GI50 (HL-60(TB) leukemia): 2.78 µM
TGI (HL-60(TB) leukemia): 7.94 µM
GI50 (SF-268 CNS): 3.69 µM
TGI (SF-268 CNS): 13.7 µM
GI50 (K-562 leukemia): 2.54 µM
TGI (K-562 leukemia): 6.44 µM
GI50 (NCI-H522 lung): 1.61 µM
TGI (NCI-H522 lung): 3.72 µM
GI50 (CAKI-1 renal): 3.11 µM
TGI (CAKI-1 renal): 11.4 µM
GI50 (OVCAR-4 ovarian): 2.61 µM
TGI (OVCAR-4 ovarian): 13.2 µM
GI50 (SR leukemia): 3.41 µM
TGI (SR leukemia): 18.6 µM
GI50 (MALME-3M melanoma): 2.06 µM
TGI (MALME-3M melanoma): 5.89 µM
GI50 (NCI-H226 lung): 15.1 µM
TGI (NCI-H226 lung): 40.2 µM
GI50 (HOP-62 NSCLC): 11.9 µM
TGI (HOP-62 NSCLC): 25.1 µM

CCOC12OC3=C(CC1CC1=C(CCC1=O)O2)C(=O)CC3 (centres undefined)
TGI (HL-60(TB) leukemia): > 100 µM
TGI (SF-268 CNS): > 100 µM
TGI (K-562 leukemia): > 100 µM
TGI (NCI-H522 lung): > 100 µM
TGI (CAKI-1 renal): > 100 µM
TGI (OVCAR-4 ovarian): > 100 µM
TGI (SR leukemia): > 100 µM
TGI (MALME-3M melanoma): > 100 µM
TGI (NCI-H226 lung): > 100 µM
TGI (HOP-62 NSCLC): > 100 µM

CC(=O)N1N=C2/C(=C/c3ccccc3)CC(C)CC2C1c1ccccc1 (centres undefined)
GI50 (HL-60(TB) leukemia): 8.82 µM
TGI (HL-60(TB) leukemia): 32.1 µM
GI50 (SF-268 CNS): 14.8 µM
TGI (SF-268 CNS): 30.6 µM
GI50 (K-562 leukemia): 4.29 µM
TGI (K-562 leukemia): 20.7 µM
GI50 (NCI-H522 lung): 13.8 µM
TGI (NCI-H522 lung): 31.7 µM
GI50 (CAKI-1 renal): 19.1 µM
TGI (CAKI-1 renal): 41.8 µM
GI50 (OVCAR-4 ovarian): 10.8 µM
TGI (OVCAR-4 ovarian): 25.2 µM
GI50 (SR leukemia): 10.7 µM
TGI (SR leukemia): 33 µM
GI50 (MALME-3M melanoma): 18 µM
TGI (MALME-3M melanoma): 37.4 µM
GI50 (NCI-H226 lung): 15.3 µM
TGI (NCI-H226 lung): 34 µM
GI50 (HOP-62 NSCLC): 16.6 µM
TGI (HOP-62 NSCLC): 32.6 µM

O=[N+]([O-])c1ccc(Br)c([N+](=O)[O-])c1
GI50 (HL-60(TB) leukemia): 1.41 µM
TGI (HL-60(TB) leukemia): 3.54 µM
GI50 (SF-268 CNS): 1.93 µM
TGI (SF-268 CNS): 3.94 µM
GI50 (K-562 leukemia): 1.98 µM
TGI (K-562 leukemia): > 23.5 µM
GI50 (NCI-H522 lung): 0.163 µM
TGI (NCI-H522 lung): 0.355 µM
GI50 (CAKI-1 renal): 0.406 µM
TGI (CAKI-1 renal): 0.954 µM
GI50 (OVCAR-4 ovarian): 1.72 µM
TGI (OVCAR-4 ovarian): 3.19 µM
GI50 (SR leukemia): 1.56 µM
TGI (SR leukemia): 5.64 µM
GI50 (MALME-3M melanoma): 1.96 µM
TGI (MALME-3M melanoma): 4.18 µM
GI50 (NCI-H226 lung): 8.36 µM
TGI (NCI-H226 lung): 23.5 µM
GI50 (HOP-62 NSCLC): 1.78 µM
TGI (HOP-62 NSCLC): 3.24 µM

Cc1ccc(NC(=O)C(=O)C2C(=O)N(c3ccccc3)N=C2N)cc1C (centres undefined)
TGI (HL-60(TB) leukemia): > 100 µM
TGI (SF-268 CNS): > 100 µM
TGI (K-562 leukemia): > 100 µM
TGI (NCI-H522 lung): > 100 µM
TGI (CAKI-1 renal): > 100 µM
TGI (OVCAR-4 ovarian): > 100 µM
TGI (SR leukemia): > 100 µM
TGI (MALME-3M melanoma): > 100 µM
TGI (NCI-H226 lung): > 100 µM
TGI (HOP-62 NSCLC): > 100 µM

CCOc1cccc(/C=N/NC(=O)c2ccc(Nc3ccnc(C(F)(F)F)c3)cc2)c1O
GI50 (HL-60(TB) leukemia): 1.33 µM
TGI (HL-60(TB) leukemia): 5.47 µM
GI50 (SF-268 CNS): 1.07 µM
TGI (SF-268 CNS): > 100 µM
GI50 (K-562 leukemia): 0.947 µM
TGI (K-562 leukemia): > 31.6 µM
GI50 (NCI-H522 lung): 16.9 µM
TGI (NCI-H522 lung): > 82.8 µM
GI50 (CAKI-1 renal): 1.36 µM
TGI (CAKI-1 renal): > 100 µM
GI50 (OVCAR-4 ovarian): 0.755 µM
TGI (OVCAR-4 ovarian): > 100 µM
GI50 (SR leukemia): 0.236 µM
TGI (SR leukemia): > 100 µM
GI50 (MALME-3M melanoma): 2.29 µM
TGI (MALME-3M melanoma): > 47.8 µM
GI50 (NCI-H226 lung): 2.08 µM
TGI (NCI-H226 lung): 22.5 µM
GI50 (HOP-62 NSCLC): 2.23 µM
TGI (HOP-62 NSCLC): > 78.5 µM

c1ccc(Cn2cc3c(c2-c2ccccc2)CCc2cnoc2-3)cc1
GI50 (HL-60(TB) leukemia): 1.75 µM
TGI (HL-60(TB) leukemia): 4.09 µM
GI50 (SF-268 CNS): 8.05 µM
TGI (SF-268 CNS): > 100 µM
GI50 (K-562 leukemia): 2.14 µM
TGI (K-562 leukemia): 7.31 µM
GI50 (NCI-H522 lung): 3.04 µM
TGI (NCI-H522 lung): > 100 µM
GI50 (CAKI-1 renal): 4.4 µM
TGI (CAKI-1 renal): > 100 µM
GI50 (OVCAR-4 ovarian): 10.7 µM
TGI (OVCAR-4 ovarian): > 100 µM
GI50 (SR leukemia): 1.96 µM
TGI (SR leukemia): 9.28 µM
GI50 (MALME-3M melanoma): 3.13 µM
TGI (MALME-3M melanoma): 30.1 µM
GI50 (NCI-H226 lung): 14.7 µM
TGI (NCI-H226 lung): > 100 µM
GI50 (HOP-62 NSCLC): 6.76 µM
TGI (HOP-62 NSCLC): > 100 µM

CC(=O)N1c2ccccc2C23CCN(C)CC4C(C)OCC(C4CC2=O)C13 (centres undefined)
TGI (HL-60(TB) leukemia): > 100 µM
TGI (SF-268 CNS): > 100 µM
TGI (K-562 leukemia): > 100 µM
TGI (NCI-H522 lung): > 100 µM
TGI (CAKI-1 renal): > 100 µM
TGI (OVCAR-4 ovarian): > 100 µM
TGI (SR leukemia): > 100 µM
TGI (MALME-3M melanoma): > 100 µM
TGI (NCI-H226 lung): > 100 µM
